These results are taken from paper PMC9822072, “Synthesis and Structure–Activity Relationship of 2,6-Disubstituted Thiosemicarbazone Derivatives of Pyridine as Potential Antituberculosis Agents” (Materials, 2023).

Values after ≈ are worked out from the molar mass of the structure shown. Where two headings read alike, the source gives them in different places.

Series [1] has as its system Candida albicans ATCC 102231. Briefly: Antifungal microdilution broth method. The format is cell-based. Particulars: ATCC102231, Mueller–Hinton broth with 2% glucose, read-out: MIC C. albicans ATCC 102231. Here is the method: (§1) The antibacterial and antifungal activities of compounds 4–9 were screened by the microdilution broth method using Mueller–Hinton broth for the growth of bacteria and Mueller–Hinton broth with 2% glucose for the growth of fungi. The antimicrobial assays were carried out following a previous study. The MICs of the aforementioned derivatives were evaluated for the panel of reference microorganisms from the ATCC (American Type Culture Collection), including Gram-positive bacteria (Staphylococcus aureus ATCC 25923, Staphylococcus epidermidis ATCC 12228, Micrococcus luteus ATCC 10240, Bacillus subtilis ATCC 6633, and Bacillus cereus ATCC 10876), Gram-negative bacteria (Escherichia coli ATCC 25922, Proteus mirabilis ATCC 12453, Klebsiella pneumoniae ATCC 13883, and Pseudomonas aeruginosa ATCC 9027), and fungi (Candida albicans ATCC 102231 and Candida parapsilosis ATCC 22019) (LGC Standards, Teddington, Middlesex, UK). Vancomycin (VAN), ciprofloxacin (CIP), and fluconazole (FCZ) were used as standard drugs for comparison. Each experiment was performed in triplicate.
On the technique in general: Dilution methods test growth across graded concentrations, often in twofold steps.

The subject of series [2] is Candida parapsilosis ATCC 22019. Briefly: Antifungal microdilution broth method. Type of series: cell-based. Particulars: Lodderomyces parapsilosis, ATCC22019; Mueller–Hinton broth with 2% glucose; read-out: MIC C. parapsilosis ATCC 22019. Here is the method: as §1
For series [3], the system named is HaCaT cells. Briefly: Cytotoxic activity, sulforhodamine B method. Particulars: for IC50: Homo sapiens, 72 h, read-out: IC50-HaCaT SULF; for cytotoxicity against noncancer cells (in words): MTT and sulforhodamine B methods together. (Sulforhodamine B stains cellular protein and so reports cell mass.)
The subject of series [4] is HaCaT cells. Briefly: Cytotoxic activity, MTT method. Type of series: cell-based. The following applies: Homo sapiens, 72 h, 3 days of incubation. (In general: Tetrazolium assays rely on reduction of a dye to a coloured formazan, in cell work by metabolically active cells.)
Series [5] has as its system Bacillus subtilis ATCC 6633. Briefly: Antibacterial microdilution broth method. Type of series: cell-based. Here is the method: as §1
The subject of series [6] is Klebsiella pneumoniae ATCC 13883. Briefly: Antibacterial microdilution broth method. Type of series: cell-based. The procedure:
as §1

The subject of series [7] is Proteus mirabilis ATCC 12453. Briefly: Antibacterial microdilution broth method. The format is cell-based. Here is the method:
as §1

The test system of series [8] is Staphylococcus aureus ATCC 25923. Briefly: Antibacterial microdilution broth method. The following applies: Staphylococcus aureus. The format is cell-based. The procedure: as §1
Series [9] concerns Escherichia coli ATCC 25922. Briefly: Antibacterial microdilution broth method. Type of series: cell-based. Here is the method:
as §1

Series [10] deals with Staphylococcus epidermidis ATCC 12228. Briefly: Antibacterial microdilution broth method. The format is cell-based. The following applies: Staphylococcus epidermidis. The procedure:
as §1

Series [11] relates to Pseudomonas aeruginosa ATCC 9027. Briefly: Antibacterial microdilution broth method. The format is cell-based. The procedure:
as §1

Series [12] has as its system Micrococcus luteus ATCC 10240. Briefly: Antibacterial microdilution broth method. The format is cell-based. Here is the method: as §1
Series [13] has as its system Bacillus cereus ATCC 10876. Briefly: Antibacterial microdilution broth method. Type of series: cell-based. The procedure: as §1
For series [14], the system named is M. tuberculosis H37Rv (standard strain). Briefly: Tuberculostatic activity, twofold serial microdilution with Alamar Blue. The format is cell-based, Mycobacterium tuberculosis. Particulars: Mycobacterium tuberculosis, H37RV, 504 h, 21 days at 37 °C.
Series [15] deals with other pathogenic microorganisms. Also on record: method as in PMID 32061963, PMID 36013649. Particulars: cited from earlier work.
The subject of a further series is Mycobacterium strains. Further details: method as in PMID 32061963, PMID 36013649. Particulars: cited from earlier work.
[16] abbreviates: ATCC6633, Mueller–Hinton broth, read-out: MIC B. subtilis ATCC 6633.
Setting [17] is: ATCC13883, Mueller–Hinton broth, read-out: MIC K. pneumoniae ATCC 13883.
[18] abbreviates: ATCC12453, Mueller–Hinton broth, read-out: MIC P. mirabilis ATCC 12453.
Where [19] appears, read: ATCC25923, Mueller–Hinton broth, read-out: MIC S. aureus ATCC 25923.
[20] abbreviates: ATCC25922, Mueller–Hinton broth, read-out: MIC E. coli ATCC 25922.
Where [21] appears, read: ATCC12228, Mueller–Hinton broth, read-out: MIC S. epidermidis ATCC 12228.
The mark [22] stands for this setting: ATCC9027, Mueller–Hinton broth, read-out: MIC P. aeruginosa ATCC 9027.
[23] abbreviates: ATCC10240, Mueller–Hinton broth, read-out: MIC M. luteus ATCC 10240.
The mark [24] stands for this setting: ATCC10876, Mueller–Hinton broth, read-out: MIC B. cereus ATCC 10876.

For orientation: MIC means the least concentration at which growth counts as inhibited. The melting point is the temperature of the solid-liquid transition. In general, IC50 refers to the concentration at which inhibition is half-maximal. Take `NC(=NNC(=S)N1CCOCC1)c1cccc(Oc2ccccc2)n1` [Compound 8, N’-(Morpholine-4-Carbonothioyl)-6-Phenoxypicolinohydrazonamide]: the melting point was in the range of 131 to 134 °C. In [1], the MIC is greater than 1000 µg/mL. For the same molecule, the minimum inhibitory concentration (MIC) in [2] is greater than 1000 µg/mL. In addition, in the series on HaCaT cells [3], the IC50 came to 50 µg/mL (≈ 140 µM) and the “cytotoxicity against noncancer cells (in words)” value was “inhibited cell metabolic activity while maintaining cell viability”. The half-inhibitory concentration (IC50) in the series on HaCaT cells [4] worked out at 0.57 µg/mL (≈ 1.59 µM). Also, the minimal inhibitory concentration (MIC) in series [5] (setting [16]) was greater than 1000 µg/mL. In addition, in series [6] (setting [17]), the MIC was greater than 1000 µg/mL. The MIC in series [7] (setting [18]) was greater than 1000 µg/mL. Also, the MIC in series [8] (setting [19]) stood at 250 µg/mL (≈ 699 µM). Besides, the MIC in [9] (setting [20]) was greater than 1000 µg/mL. For the same molecule, the MIC in series [10] (setting [21]) stood at 31.3 µg/mL (≈ 87.6 µM). In [11] (setting [22]), the minimal inhibitory concentration (MIC) is greater than 1000 µg/mL. The minimal inhibitory concentration (MIC) in [12] (setting [23]) was 125 µg/mL (≈ 350 µM). Also, the MIC in [13] (setting [24]) is greater than 1000 µg/mL. Also, it took 8 µg/mL (≈ 22.4 µM) to inhibit growth in [14] (MIC).

Take `NC(=NNC(=S)N1CCCC1)c1cccc(Oc2ccccc2)n1` [Compound 9, 6-Phenoxy-N’-(Pyrrolidine-1-Carbonothioyl)Picolinohydrazonamide]: the melting point is 170 to 173 °C. The minimum inhibitory concentration (MIC) in [1] amounted to 1000 µg/mL (≈ 2930 µM). The MIC in [2] is 1000 µg/mL (≈ 2930 µM). Besides, in the series with HaCaT cells [3], the half-maximal inhibitory concentration (IC50) turned out to be 1.31 µg/mL (≈ 3.84 µM) and the “cytotoxicity against noncancer cells (in words)” value is listed as “showed the same while losing cell viability”. This molecule yielded an IC50 in the series with HaCaT cells [4] of 0.06 µg/mL (≈ 0.176 µM). In addition, the minimal inhibitory concentration (MIC) in [5] (setting [16]) worked out at 0.49 µg/mL (≈ 1.44 µM). Moreover, the MIC in series [6] (setting [17]) was greater than 1000 µg/mL. Also, the MIC in [7] (setting [18]) is greater than 1000 µg/mL. In addition, the minimal inhibitory concentration (MIC) in [8] (setting [19]) amounted to 0.98 µg/mL (≈ 2.87 µM). For the same molecule, the minimum inhibitory concentration (MIC) in series [9] (setting [20]) is 1000 µg/mL (≈ 2930 µM). In addition, the MIC in [10] (setting [21]) came to 0.49 µg/mL (≈ 1.44 µM). Moreover, the MIC in [11] (setting [22]) was found to be 1000 µg/mL (≈ 2930 µM). In addition, in series [12] (setting [23]), the MIC amounted to 0.49 µg/mL (≈ 1.44 µM). The minimal inhibitory concentration (MIC) in series [13] (setting [24]) stood at 3.9 µg/mL (≈ 11.4 µM). Besides, in series [14], 8 µg/mL (≈ 23.4 µM) was the least that counted as inhibitory (MIC).

Regarding `OC(Cn1cncn1)(Cn1cncn1)c1ccc(F)cc1F` [FCZ, fluconazole, reference compound], the minimal inhibitory concentration (MIC) turned out to be 0.98 µg/mL (≈ 3.2 µM) in [1] and 1.95 µg/mL (≈ 6.37 µM) in series [2].

On to `NNC(=O)c1ccncc1` [INH, isoniazid, reference compound], for which inhibition of growth in series [14] (MIC) required 0.125 µg/mL (≈ 0.911 µM).

`N/C(=N\NC(=S)N1CCOCC1)c1cc(-c2ccccc2)ccn1` [MKG-1b]: the “MIC other pathogenic microorganisms” value in [15] is 0.98 to 500 µg/mL. Besides, the “MIC toward Mycobacterium strains” value in the series on Mycobacterium strains is given as 3.1 µg/mL (≈ 9.08 µM).

As to `CN[C@H](CC(C)C)C(=O)N[C@H]1C(=O)N[C@@H](CC(N)=O)C(=O)N[C@H]2C(=O)N[C@H]3C(=O)N[C@H](C(=O)N[C@H](C(=O)O)c4cc(O)cc(O)c4-c4cc3ccc4O)[C@H](O)c3ccc(c(Cl)c3)Oc3cc2cc(c3O[C@@H]2O[C@H](CO)[C@@H](O)[C@H](O)[C@H]2O[C@H]2C[C@](C)(N)[C@H](O)[C@H](C)O2)Oc2ccc(cc2Cl)[C@H]1O` [VAN, Vancomycin, reference compound], the minimal inhibitory concentration (MIC) in [5] (ATCC6633, read-out: MIC B. subtilis ATCC 6633) came to 0.24 µg/mL (≈ 0.166 µM); in [6] (ATCC13883, read-out: MIC K. pneumoniae ATCC 13883) it was 0.06 µg/mL (≈ 0.0414 µM); in [7] (ATCC12453, read-out: MIC P. mirabilis ATCC 12453) it was 0.03 µg/mL (≈ 0.0207 µM); in series [8] (ATCC25923, read-out: MIC S. aureus ATCC 25923) it was 0.98 µg/mL (≈ 0.676 µM); in [9] (ATCC25922, read-out: MIC E. coli ATCC 25922), 0.004 µg/mL (≈ 0.00276 µM); in series [10] (ATCC12228, read-out: MIC S. epidermidis ATCC 12228), 0.98 µg/mL (≈ 0.676 µM). In addition, the MIC in [11] (ATCC9027, read-out: MIC P. aeruginosa ATCC 9027) worked out at 0.49 µg/mL (≈ 0.338 µM); in series [12] (ATCC10240, read-out: MIC M. luteus ATCC 10240), 0.12 µg/mL (≈ 0.0828 µM); in [13] (ATCC10876, read-out: MIC B. cereus ATCC 10876), 0.98 µg/mL (≈ 0.676 µM).
